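Tested at 5 concentrations; 48 h exposure; 96-well plates; endpoints linearly interpolated, else capped at highest concentration. GI50: concentration for 50% inhibition of growth.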 The source made the active and inactive calls. No stated cut-off is given here; in the data, active = GI50 up to about 1.1 µM and inactive = higher.

Among the test systems are SK-MEL-2; SK-MEL-5; HT-29; OVCAR-5; HCT-15; UACC-257; A498; 786-0; MCF7; NCI/ADR-RES; IGROV-1; SNB-19; MDA-MB-231; EKVX; ACHN; NCI-H226; HCC 2998; Hs-578T; RPMI-8226.
Holding throughout (assay): NCI tumour cell line growth inhibition, 48 h

Turning to `COc1ccccc1NC(=O)CC(=O)NN`, the GI50 in the assay with SK-MEL-2 was > 100 µM (inactive); in the assay on SK-MEL-5 it was > 100 µM (inactive); in the assay on HT-29 it was > 100 µM (inactive); in the assay on OVCAR-5, > 100 µM (inactive); in the assay on HCT-15 it was more than 100 µM; in the assay with UACC-257, > 100 µM (inactive). Further, the GI50 is > 100 µM (inactive) in the assay with A498; > 100 µM (inactive) with 786-0; > 100 µM (inactive) in the assay with MCF7; 9.77 µM (inactive) in the assay on NCI/ADR-RES; > 100 µM (inactive) in the assay with IGROV-1; > 100 µM (inactive) in the assay on SNB-19. Moreover, the GI50 is > 100 µM (inactive) in the assay with MDA-MB-231; > 100 µM (inactive) in the assay with EKVX; > 100 µM (inactive) in the assay with ACHN; > 100 µM (inactive) in the assay on NCI-H226; 11.9 µM (inactive) with HCC 2998; > 100 µM (inactive) with Hs-578T. In the assay on RPMI-8226, the GI50 is > 100 µM (inactive).

For the molecule `Nc1nc(N)c2c3c(cnc2n1)CC(c1ccccc1)CC3` (configuration not stated), the GI50 in the assay with SK-MEL-2 is 32.3 µM (inactive); with SK-MEL-5, 1.01 µM (active); in the assay with HT-29, 5.66 µM (inactive); in the assay with OVCAR-5, 14.3 µM (inactive); in the assay on HCT-15, 4.04 µM; in the assay with UACC-257, 65.3 µM (inactive). Besides, the GI50 in the assay on A498 is 24.8 µM (inactive); in the assay on 786-0 it was 7.83 µM (inactive); in the assay with MCF7, 11.7 µM (inactive); with NCI/ADR-RES, 20.3 µM (inactive); with IGROV-1, 0.728 µM (active); in the assay with SNB-19, 13.6 µM (inactive). For the same molecule, the GI50 with MDA-MB-231 was 21.4 µM (inactive); with EKVX it was 11.2 µM (inactive); in the assay on ACHN it was 5 µM (inactive); with NCI-H226, 93.1 µM (inactive); in the assay with HCC 2998 it was 34 µM (inactive); in the assay on Hs-578T, 30.2 µM (inactive). In addition, the GI50 with RPMI-8226 is > 100 µM (inactive).

In the case of `COC(=O)C(CCc1ccccc1I)C1=CCC2(CC1)OCCO2` (configuration not stated), the GI50 is 41.2 µM (inactive) in the assay on SK-MEL-2; 15 µM (inactive) in the assay on SK-MEL-5; 35.1 µM (inactive) in the assay on HT-29; 15.7 µM (inactive) in the assay with OVCAR-5; 34.1 µM in the assay on HCT-15; 29.4 µM (inactive) in the assay on UACC-257. Moreover, the GI50 is > 100 µM (inactive) in the assay on A498; 51.3 µM (inactive) in the assay on 786-0; 32.7 µM (inactive) in the assay with MCF7; 24.6 µM (inactive) with NCI/ADR-RES; 96.2 µM (inactive) with IGROV-1; 36.3 µM (inactive) in the assay on SNB-19. Also, the GI50 in the assay on MDA-MB-231 is 65.5 µM (inactive); in the assay with EKVX, 70.8 µM (inactive); in the assay on ACHN, 79.3 µM (inactive); in the assay with NCI-H226 it was > 100 µM (inactive); in the assay with HCC 2998 it was 33.6 µM (inactive); in the assay with Hs-578T it was 37.6 µM (inactive). Also, the GI50 in the assay on RPMI-8226 is 62.2 µM (inactive).

Consider `CCCCCc1cc(CCCC)sc1-c1ccco1`, for which the GI50 is > 83.9 µM (inactive) with SK-MEL-2; > 100 µM (inactive) with SK-MEL-5; 45 µM (inactive) with HT-29; > 87.3 µM (inactive) in the assay with OVCAR-5; more than 100 µM in the assay on HCT-15; > 64.3 µM (inactive) in the assay with UACC-257. Also, the GI50 with A498 was > 100 µM (inactive); with 786-0, > 100 µM (inactive); in the assay with MCF7, 76.4 µM (inactive); in the assay on NCI/ADR-RES, > 100 µM (inactive); in the assay on IGROV-1, > 100 µM (inactive); with SNB-19, > 100 µM (inactive). In addition, the GI50 was > 100 µM (inactive) in the assay with MDA-MB-231; > 87.1 µM (inactive) in the assay with EKVX; > 100 µM (inactive) in the assay on ACHN; > 100 µM (inactive) with NCI-H226; > 95.9 µM (inactive) in the assay with HCC 2998; > 100 µM (inactive) in the assay with Hs-578T. Also, the GI50 with RPMI-8226 is 55.3 µM (inactive).

In the case of `O=C(c1c(F)c(F)c(F)c(F)c1F)N1CCN(C(=O)c2c(F)c(F)c(F)c(F)c2F)C1=S`, the GI50 is 2.11 µM (inactive) with SK-MEL-2; 6.9 µM (inactive) in the assay with SK-MEL-5; 5.48 µM (inactive) with HT-29; 15.6 µM (inactive) in the assay with OVCAR-5; 2.2 µM in the assay on HCT-15; 8.34 µM (inactive) in the assay with UACC-257. The GI50 in the assay with A498 is 18.1 µM (inactive); with 786-0, 13.2 µM (inactive); with MCF7, 5.43 µM (inactive); in the assay with NCI/ADR-RES, 7.33 µM (inactive); in the assay on IGROV-1 it was 4.4 µM (inactive); with SNB-19, 16.4 µM (inactive). Further, the GI50 with MDA-MB-231 is 6.75 µM (inactive); in the assay with EKVX it was 13 µM (inactive); in the assay on ACHN, 7.69 µM (inactive); in the assay on NCI-H226, 15.4 µM (inactive); in the assay with HCC 2998, 9.57 µM (inactive); in the assay on Hs-578T it was 4.66 µM (inactive). Further, the GI50 in the assay on RPMI-8226 is 2.43 µM (inactive).

Turning to `COc1cc2c(cc1OC)C(=O)N(c1ccc(O)cc1)C2=O`, the GI50 in the assay on SK-MEL-2 is > 100 µM (inactive); in the assay on SK-MEL-5, > 100 µM (inactive); with HT-29, > 100 µM (inactive); in the assay on OVCAR-5 it was > 100 µM (inactive); with HCT-15 it was more than 100 µM; in the assay on UACC-257 it was > 100 µM (inactive). In addition, the GI50 in the assay on A498 was > 100 µM (inactive); with 786-0, > 100 µM (inactive); with MCF7, < 0.01 µM (active); in the assay with NCI/ADR-RES, > 100 µM (inactive); in the assay with IGROV-1 it was > 100 µM (inactive); in the assay on SNB-19, > 100 µM (inactive). The GI50 in the assay with MDA-MB-231, in the assay on EKVX, with ACHN, in the assay on NCI-H226, in the assay with HCC 2998 and in the assay with Hs-578T was > 100 µM (inactive) in each case. Also, the GI50 in the assay with RPMI-8226 was > 100 µM (inactive).

For `N#CCCN(C(=O)Nc1ccc(NC(=O)N(CCC#N)c2ccccc2)cc1)c1ccccc1`, the GI50 in the assay with SK-MEL-2 was > 100 µM (inactive); in the assay with SK-MEL-5, > 100 µM (inactive); in the assay with HT-29, > 100 µM (inactive); in the assay on OVCAR-5, > 100 µM (inactive); in the assay with HCT-15 it was more than 100 µM; in the assay on A498, > 100 µM (inactive). The GI50 with 786-0, in the assay with MCF7, in the assay on NCI/ADR-RES, with IGROV-1, in the assay on SNB-19 and with MDA-MB-231 was > 100 µM (inactive) each time. The GI50 in the assay on EKVX, with ACHN, in the assay with NCI-H226, in the assay on HCC 2998, with Hs-578T and with RPMI-8226 was > 100 µM (inactive) throughout.

`[N-]=[N+]=NC(c1cn(C2CC(O)C(CO)O2)c(=O)[nH]c1=O)C(Cl)I` (configuration not stated): the GI50 in the assay with SK-MEL-2 was > 100 µM (inactive); in the assay with SK-MEL-5 it was > 100 µM (inactive); in the assay with HT-29, > 100 µM (inactive); in the assay with OVCAR-5 it was > 100 µM (inactive); in the assay with HCT-15, more than 100 µM; in the assay with UACC-257, > 100 µM (inactive). Besides, the GI50 in the assay with A498, in the assay with 786-0, in the assay with MCF7, in the assay with NCI/ADR-RES, in the assay on IGROV-1 and with SNB-19 was > 100 µM (inactive) in each case. The GI50 with MDA-MB-231, in the assay with EKVX, in the assay on ACHN, in the assay with NCI-H226, with HCC 2998 and in the assay with Hs-578T was > 100 µM (inactive) in each case. Also, the GI50 with RPMI-8226 was > 100 µM (inactive).

With `COc1cc2c(c(OC)c1O)-c1ccc(OC)c(=O)cc1[C@@H](NC(=O)C(F)(F)F)CC2`, the GI50 was 0.0282 µM (active) with SK-MEL-2; 0.0242 µM (active) with SK-MEL-5; 0.0333 µM (active) in the assay with HT-29; 1.16 µM in the assay with HCT-15; > 100 µM (inactive) in the assay with UACC-257; 0.327 µM (active) in the assay with A498. For the same molecule, the GI50 is 0.327 µM (active) with 786-0; 0.0441 µM (active) with MCF7; 3.72 µM (inactive) with NCI/ADR-RES; 0.229 µM (active) in the assay on IGROV-1; 0.0975 µM (active) in the assay on SNB-19; 0.0413 µM (active) in the assay with MDA-MB-231. The GI50 in the assay with EKVX was 1.53 µM (inactive); with ACHN it was 0.745 µM (active); in the assay on NCI-H226 it was 0.391 µM (active); with HCC 2998, 0.307 µM (active); in the assay with Hs-578T, 0.019 µM (active); in the assay on RPMI-8226, 0.0252 µM (active).

For the molecule `CCN1CCN(c2nc3ccccc3c3c2CCOc2ccccc2-3)CC1`, the GI50 in the assay with SK-MEL-2 was 27.4 µM (inactive); with SK-MEL-5 it was 15 µM (inactive); in the assay on HT-29, > 31 µM (inactive); in the assay on OVCAR-5 it was > 45.1 µM (inactive); in the assay with HCT-15, 16.6 µM; in the assay on UACC-257, 18.1 µM (inactive). In addition, the GI50 with A498 was > 39.3 µM (inactive); with 786-0, 22.3 µM (inactive); in the assay on MCF7 it was > 39.8 µM (inactive); with NCI/ADR-RES, > 46.3 µM (inactive); with IGROV-1, 22.2 µM (inactive); with SNB-19, 39.1 µM (inactive). Besides, the GI50 is 23.5 µM (inactive) in the assay with MDA-MB-231; > 100 µM (inactive) in the assay with EKVX; > 61.2 µM (inactive) in the assay on ACHN; > 47.1 µM (inactive) with NCI-H226; 18.6 µM (inactive) in the assay on HCC 2998; 29.9 µM (inactive) with Hs-578T. The GI50 in the assay with RPMI-8226 is 19.8 µM (inactive).

On to `O=C1C(SCCO)=C(SCCO)C(=O)c2ccccc21`, for which the GI50 with SK-MEL-2 was 2 µM (inactive); in the assay on SK-MEL-5, 0.238 µM (active); in the assay on HT-29 it was 2.16 µM (inactive); with OVCAR-5, 1.16 µM (inactive); in the assay with HCT-15, 1.39 µM; in the assay on UACC-257, 1.29 µM (inactive). For the same molecule, the GI50 with A498 is 0.59 µM (active); in the assay on 786-0, 2.04 µM (inactive); in the assay with MCF7 it was 0.791 µM (active); in the assay with NCI/ADR-RES it was 0.94 µM (active); in the assay on IGROV-1, 0.467 µM (active); with SNB-19, 1.78 µM (inactive). Besides, the GI50 in the assay with MDA-MB-231 was 1.48 µM (inactive); in the assay with EKVX, 1.6 µM (inactive); with ACHN it was 0.807 µM (active); with NCI-H226, 1.71 µM (inactive); in the assay on HCC 2998 it was 1.74 µM (inactive); in the assay on Hs-578T, 1.17 µM (inactive). For the same molecule, the GI50 with RPMI-8226 is 0.865 µM (active).

Values taken from ChEMBL document CHEMBL1201862, “PubChem BioAssay data set” (2004).
